Results reported in patent publication US20020049161A1, “Pharmaceutical combination preparations containing erythropoietin and iron preparations” (Roche Diagnostics GmbH, priority 1995, published 2002).

Columns and labels:
[1] = test system: anemia patients; experiment: Iron status and safety diagnostic parameters in anemia patients under rhEPO/iron therapy; format: in vivo, human
Procedure: When conducting the combination therapy using the combination preparation of the invention to treat anemia, the weekly maximum dosage can be concluded in a quite simple fashion by determining the diagnostic parameters transferrin receptor (TfR), ferritin and the ratio of TfR to ferritin.
Advantageously, the TfR concentration is between 1500-2500 μg/l. The concentration ratio of TfR (in μg/l) to ferritin (in μg/l) is particularly in the range of 15-35, preferably at values above 20.
In order to safely exclude undesirable side effects, the acute phase parameter CRP (2-10 mg/l) [CRP=C-reactive protein) is measured. In addition, the liver parameter GPT (glutamate pyruvate transaminase) may be determined, which should be <50 U/l at 37° C. (<30 U/l at 25° C.). Furthermore, the hematological control parameters such as hematocrit (fraction of red blood cells in total volume) or the increase in hypochromic erythrocytes may optionally be utilized, wherein the reticulocytes may increase to a value of up to 15/1000-30/1000. The typical hemoglobin concentration is about 12-18 g/dl.
The determination of the iron status is effected by analyzing samples of body fluids (blood, serum, urine, etc.) from the patients in question. For the determination of the iron status, particularly the concentrations of iron, transferrin, ferritin, transferrin receptor, the transferrin saturation, and the transferrin/ferritin saturation are determined. With hemodialysis patients, the iron, transferrin, ferritin and transferrin saturation parameters are preferably determined according to per se common analytical methods. In particular, the determination of the transferrin/ferritin saturation value is relevant. In the case of anemia patients whose anemia has not been caused by hemodialysis, the ferritin concentration and the concentration of transferrin receptor are determined above all. In particular, the determination of the ratio of transferrin receptor to ferritin (transferrin receptor/ferritin saturation value) is relevant.
In addition, the serum ferritin level is determined. Ferritin is an iron-storing glycoprotein of which tissue-typical isoferritins are existing and which can be determined in the serum by immunological means, e.g., by a radioimmunoassay (RIA) or by turbidimetric methods as well. The ferritin value is a measure for iron storage in the tissue. In most of the laboratories, the normal range is between 30 and 300 ng/ml, and the geometrical mean value is 88 in males and 49 in females. The serum ferritin values are in close relationship to the total iron reserve of the body. Therefore, decreased serum ferritin levels are found only in case of iron deficiency. Increased levels are found in case of iron overloading. Likewise, increased serum ferritin levels are found in case of liver lesions or in association with some types of neoplasia, where ferritins may be bound to acute phase proteins. Similarly, the serum transferrin receptor may be determined using an enzyme-enhanced immune absorption test (enzyme-linked immunosorbent assay=ELISA), wherein a monoclonal antibody against the soluble receptor is used. The reference range is between 0.5-3 mg/l. The level is increased in case of slight deficiency in the iron depots. The concentrations of specific erythrocyte ferritins may be determined in order to characterize the iron depots, particularly if the serum ferritin cannot be utilized in case of tissue lesions or due to acute phase reactions.

[2] = test system: hemodialysis patients; experiment: Iron status and safety diagnostic parameters in hemodialysis patients under rhEPO/iron therapy; format: in vivo, human
Procedure: When conducting the combination therapy using the combination preparation according to the invention, the maximum weekly dosage can be concluded in a quite simple fashion by determining the diagnostic parameters for the iron status, particularly the iron, transferrin, transferrin saturation and ferritin parameters.
Preferably, the ferritin concentration is at least 125 μg/l, particularly at least 150 μg/l, and up to 270 μg/l at maximum, especially up to 250 μg/l at maximum. Advantageously, the iron concentration is between 10-20 μmol/l (corresponding to about 56-112 μg/dl) and the transferrin concentration between […] (corresponding to about 240-480 mg/dl) The transferrin saturation is defined as the ratio of serum/plasma iron concentration to serum/plasma transferrin concentration (multiplied by a correction factor of 1.41). It is a non-dimensional figure not depending on the patient's hydration condition. The transferrin saturation is calculated according to the formula: […]
In order to safely exclude undesirable side effects, the acute phase parameter CRP (5 mg/l±100%) [CRP=C reactive protein) is measured, with CRP currently being regarded as the best protein marker of inflammatory reactions. In addition, the liver parameters GPT (glutamate pyruvate transaminase), GOT (glutamate oxalic acetate transaminase) and γ-GT (γ-glutamyltransferase) may be determined, which should fall within the following ranges: (determination at 37° C.): GPT: <50 U/l; GOT: <50 U/l; γ-GT: <40 U/l, with the GPT parameter currently ranking first in liver diagnostics.
The determination of the iron status is effected by analyzing samples of body fluids (blood, serum, urine, etc.) from the patients in question. For the determination of the iron status, particularly the concentrations of iron, transferrin, ferritin, transferrin receptor, the transferrin saturation, and the transferrin/ferritin saturation are determined. With hemodialysis patients, the iron, transferrin, ferritin and transferrin saturation parameters are preferably determined according to per se common analytical methods. […]

[3] = Patient E (anemia), 5,000 U rhEPO three times a week over 3 weeks
[4] = Patient F (anemia), iron infusions omitted, within 3 weeks
[5] = Patient B (hemodialysis), 5,000 U rhEPO three times a week over 3 weeks

recombinant human erythropoietin [rhEPO]
ferritin value decreased to [1, 3]: < 500 µg/L | transferrin receptor value increased to [1, 3]: above 1500 μg/l | transferrin saturation decreased to [1, 3]: < 25% | ferritin values lowered to [1, 4]: < 500 µg/L | transferrin receptor values increased to [1, 4]: above 1500 μg/l | ferritin value decreased to [2, 5]: < 500 µg/L | transferrin saturation decreased to [2, 5]: < 25% | ferritin values lowered to ([2]; Patient C (hemodialysis), iron infusions omitted, within 3 weeks): 500 µg/L
